Article PMC7401255, “Osirisynes G-I, New Long-Chain Highly Oxygenated Polyacetylenes from the Mayotte Marine Sponge Haliclona sp” (Marine Drugs, 2020)
Like-named read-outs stand apart in the source and are kept apart here.

Experiments:
FynB wt = target: T1, FynB wt (Homo sapiens, UniProt P06241); experiment: FynB kinase inhibition assay (ADP-Glo Kinase Assay); assay type: biochemical
T1 construct: Crelux construct CTX4, PC09815-1
Protocol: The assay buffer contained 20 mM Tris pH 8.0, 170 mM NaCl, and 10 mM MgCl2.
For the selected hits, 9.5 µL protein dilution (final concentration 200 nM) were mixed with 0.5 µL of compound dilution ranging from 1–0.0005 mg/mL (assay end conc. 33–0.016 μg/mL) and preincubated for 90 min.
Then, 5 µL substrate/ATP mix was added (final concentration substrate 10 µM and ATP 100 µM) and the assay was incubated for another 2 h. Afterwards, 5 µL of the 15 µL assay reaction were transferred to new wells and 5 µL ADP Glo Reagent was added to terminate the kinase reaction and deplete the remaining ATP. After 40 min, 10 µL of Kinase Detection Reagent was added to convert ADP to ATP and allow the newly synthesized ATP to be measured using a luciferase/luciferin reaction. After another 40 min, the assay plates were measured in Luminescence mode on a Tecan M1000 plate reader. The light generated, i.e., luminescent signal, is proportional to the ADP concentration produced and is correlated with kinase activity. The IC50 was calculated using XLfit.

Yeast proteasome = target: T2, Yeast proteasome (Saccharomyces cerevisiae, UniProt P30656); experiment: Proteasome inhibition assay (fluorescence intensity, Suc-Leu-Leu-Val-Tyr-AMC); assay type: biochemical; conditions: 9 nM yeast proteasome, 5 µM substrate, preincubated 90 min, 22 °C
T2 construct: TUM Groll group (academic supplier)
Protocol: The assay was carried out at room temperature (22 °C) using Corning 4514 black low volume 384-well plates. All measurements were performed in duplicate and the final DMSO concentration was 3.3%. The assay buffer contained 100 mM Tris pH 7.5 and 1 mM MgCl2. (Table 5).
For the positive control, 9.5 µL protein dilution (final concentration 9 nM) were mixed with 0.5 µL of compound dilution ranging from 30–0.015 μM (assay end conc. 1000–0.5 nM). For the selected hits, 9.5 µL protein dilution (final concentration 9 nM) were mixed with 0.5 µL of compound dilution ranging from 1–0.0005 mg/mL (assay end conc. 33–0.016 μg/mL) and preincubated for 90 min. Then, 5 µL substrate mix was added (final concentration 5 µM) and incubated for 60 min. The assay plates were measured in Fluorescence mode on a Tecan M1000 plate reader (ex 380 nm, em 460 nm). The IC50 was calculated using XLfit.
For assay set-up and validation, the tool compound ONX-0914 was utilized. For this tool compound, a dose-dependent decrease in the Fluorescence signal was observed similar to previous results.

CDK7 = target: T3, CDK7 (Homo sapiens, UniProt P50613); experiment: CDK7 inhibition assay (ADP-Glo Kinase Assay); assay type: biochemical; conditions: for IC50: 300 nM CDK7, 30 µM CDKtide, 125 µM ATP, preincubated 120 min, 22 °C
T3 construct: Crelux construct CZY-3, PC09891
T3 sequence (P50613 whole entry, species assumed): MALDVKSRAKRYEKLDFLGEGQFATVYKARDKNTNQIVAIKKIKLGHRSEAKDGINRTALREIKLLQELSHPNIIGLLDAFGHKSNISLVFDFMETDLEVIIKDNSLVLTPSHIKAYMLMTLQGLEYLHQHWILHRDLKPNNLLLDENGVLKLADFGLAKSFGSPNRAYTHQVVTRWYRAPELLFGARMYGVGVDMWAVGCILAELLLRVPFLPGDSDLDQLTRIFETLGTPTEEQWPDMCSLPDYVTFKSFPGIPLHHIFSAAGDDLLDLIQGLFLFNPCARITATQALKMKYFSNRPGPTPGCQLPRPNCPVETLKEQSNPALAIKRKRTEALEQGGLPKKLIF
Protocol: The assay was carried out at room temperature (22 °C) using Corning white low volume 384-well plates. […]. The assay buffer contained 20 mM Hepes pH 7.0, 150 mM NaCl, and 10 mM MgCl2. (Table 4).
For the positive control, 9.5 µL protein dilution (final concentration 300 nM) were mixed with 0.5 µL of compound dilution ranging from 990–0.006 μM (assay end conc. 33–0.0002 μM). For the selected hits, 9.5 µL protein dilution (final concentration 300 nM) were mixed with 0.5 µL of compound dilution ranging from 1–0.0005 mg/mL (assay end conc. 33–0.016 μg/mL) and preincubated for 120 min.
Then, 5 µL substrate/ATP mix was added (final concentration substrate 30 µM and ATP 125 µM) and the assay was incubated for another 2 h. Afterwards, 5 µL of the 15 µL assay reaction were transferred to new wells and 5 μL ADP Glo Reagent was added to terminate the kinase reaction and deplete the remaining ATP. After 40 min, 10 µL of Kinase Detection Reagent was added to convert ADP to ATP and allow the newly synthesized ATP to be measured using a luciferase/luciferin reaction. After another 40 min, the assay plates were measured in Luminescence mode on a Tecan M1000 plate reader.
The light generated, i.e., luminescent signal, is proportional to the ADP concentration produced and is correlated with kinase activity. The IC50 was calculated using XLfit.

Na+/K+ ATPase = tested on: Na+/K+ ATPase; set-up: method as in doi:10.1016/S0040-4039(00)96493-1; conditions: cited from earlier work
[1] = tested on: reverse transcriptase (RT); set-up: method as in doi:10.1016/S0040-4039(00)96493-1; conditions: cited from earlier work
[2] = 200 nM FynB wt, 10 µM Fyn substrate, 100 µM ATP, preincubated 90 min, 22 °C, read-out: IC50 FynB Kinase Inhibition

T1 sequence (P06241 whole entry): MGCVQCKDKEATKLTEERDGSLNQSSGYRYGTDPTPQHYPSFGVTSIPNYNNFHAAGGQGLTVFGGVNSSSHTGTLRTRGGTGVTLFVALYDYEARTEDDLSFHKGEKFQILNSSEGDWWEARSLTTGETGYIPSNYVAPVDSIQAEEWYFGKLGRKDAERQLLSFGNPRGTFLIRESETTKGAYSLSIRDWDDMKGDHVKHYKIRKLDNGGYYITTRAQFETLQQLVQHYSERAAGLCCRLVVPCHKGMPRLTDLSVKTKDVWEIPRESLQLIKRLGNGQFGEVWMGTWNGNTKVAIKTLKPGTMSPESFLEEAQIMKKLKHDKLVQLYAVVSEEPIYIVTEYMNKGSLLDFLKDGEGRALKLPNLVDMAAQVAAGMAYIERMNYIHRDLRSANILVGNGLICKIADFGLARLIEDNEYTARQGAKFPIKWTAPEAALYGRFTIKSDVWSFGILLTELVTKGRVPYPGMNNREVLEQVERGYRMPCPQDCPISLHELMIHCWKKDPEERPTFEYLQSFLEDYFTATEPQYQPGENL

## C#CC(O)/C=C/C(O)CCCC(O)CC#CC(O)C#CC(O)CCCC(O)/C=C/CCCCCC(=O)CCCCCCCCCCCCCC(O)C(O)C#CC(=O)O (stereo not shown) [Osirisyne A (4), osirisyne A]
FynB wt; [2]
  IC50: > 41 µM
Yeast proteasome
  IC50: > 41 µM

## C#CC(O)/C=C/C(O)CCCC(O)CC#CC(O)C#CCCCCC(O)/C=C/CCCCCC(=O)CCCCCCCCCCCCCC(O)C(O)C#CC(=O)O (stereo not shown) [Osirisyne B (5), osirisyne B]
FynB wt
  Fyn kinase inhibition (in words): inhibited
FynB wt; [2]
  IC50: 18.4 µM
CDK7
  CDK7 inhibition (in words): inhibited
  IC50: 9.13 µM
Yeast proteasome
  IC50: 0.26 µM

## C#CC(O)/C=C/C(O)CCCC(O)CC#CC(O)C#CCCCCC(O)/C=C/CCCC(O)/C=C/CCCCCCCCCCCCCC(O)C(O)C#CC(=O)O (stereo not shown) [Osirisyne E (6), osirisyne E]
FynB wt
  Fyn kinase inhibition (in words): inhibited
FynB wt; [2]
  IC50: > 41.8 µM
CDK7
  CDK7 inhibition (in words): inhibited
  IC50: > 41.8 µM
Yeast proteasome
  IC50: > 41.8 µM
Na+/K+ ATPase
  Na+/K+ ATPase inhibitory activity (in words): inhibitory activities
[1]
  reverse transcriptase (RT) inhibitory activity (in words): inhibitory activities

## C#CC(O)/C=C/C(O)CCCC(O)CC#CC(O)C#CC(O)CCCC(O)/C=C/CCCCCC(=O)CCCCCCCCCCCCC(O)C(O)C(O)C#CC(=O)O (stereo not shown) [Osirisyne G (1), osirisyne G]
FynB wt; [2]
  IC50: > 40.2 µM
Yeast proteasome
  IC50: > 40.2 µM

## C#CC(O)/C=C/C(O)CCCC(O)CC#CC(O)C#CCCCCC(O)/C=C/CCCCCC(=O)CCCCCCCCCCCCC(O)C(O)C(O)C#CC(=O)O (stereo not shown) [Osirisyne H (2), osirisyne H]
FynB wt
  IC50: > 41 µM

## C#CC(O)/C=C/C(O)CCCC(O)CC#CC(O)C#CC(O)CCCC(O)/C=C/CCCC(O)/C=C/CCCCCCCCCCCCCC(O)C(O)C#CC(=O)O (stereo not shown) [Osirisyne I (3), osirisyne I]
FynB wt; [2]
  IC50: > 41 µM
Yeast proteasome
  IC50: > 41 µM
